The values that follow come from ChEMBL document CHEMBL1828625, “4-benzimidazolyl-3-phenylbutanoic acids as novel PIF-pocket-targeting allosteric inhibitors of protein kinase PKCζ” (J Med Chem, 2011).

The target of test [1] is 3-phosphoinositide-dependent protein kinase 1 (Homo sapiens) (UniProt O15530). In words: Activation of PDK1 at 50 uM.
Test [2] concerns the target T1, Protein kinase C zeta type (Homo sapiens, UniProt Q05513).
T1 sequence (Q05513 whole entry): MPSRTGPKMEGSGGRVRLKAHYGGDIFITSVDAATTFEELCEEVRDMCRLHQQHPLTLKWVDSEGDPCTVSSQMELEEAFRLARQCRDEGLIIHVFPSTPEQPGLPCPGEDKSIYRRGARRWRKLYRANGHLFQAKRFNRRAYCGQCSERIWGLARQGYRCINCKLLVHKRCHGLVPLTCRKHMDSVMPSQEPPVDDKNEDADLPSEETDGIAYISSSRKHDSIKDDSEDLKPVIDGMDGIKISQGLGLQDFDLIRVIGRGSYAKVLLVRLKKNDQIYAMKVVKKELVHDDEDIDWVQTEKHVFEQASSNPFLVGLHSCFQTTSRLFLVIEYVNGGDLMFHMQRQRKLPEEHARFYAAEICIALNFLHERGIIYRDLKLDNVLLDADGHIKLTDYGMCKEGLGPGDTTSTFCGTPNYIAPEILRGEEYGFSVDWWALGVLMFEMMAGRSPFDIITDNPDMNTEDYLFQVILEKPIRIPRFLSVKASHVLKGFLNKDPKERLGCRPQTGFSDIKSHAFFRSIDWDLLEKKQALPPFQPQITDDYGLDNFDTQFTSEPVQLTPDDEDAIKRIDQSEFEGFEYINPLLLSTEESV
Nature of the test: Inhibition of PKCzeta in human U937 cells assessed as inhibition of TNF-alpha-induced NF-kB activation by luciferase reporter gene assay. The class given is cell-based, U-937. In general terms: Reporter assays use an easily measured gene product as a stand-in for the process of interest.

The target of test [3] is T1, Protein kinase C zeta type. Nature of the test: Inhibition of human PKCzeta assessed as [gamma32P]ATP utilization using myelin basic protein as substrate.
For test [4], the target named is T2, Serine/threonine-protein kinase Sgk1 (Homo sapiens) (UniProt O00141).
T2 sequence (whole entry): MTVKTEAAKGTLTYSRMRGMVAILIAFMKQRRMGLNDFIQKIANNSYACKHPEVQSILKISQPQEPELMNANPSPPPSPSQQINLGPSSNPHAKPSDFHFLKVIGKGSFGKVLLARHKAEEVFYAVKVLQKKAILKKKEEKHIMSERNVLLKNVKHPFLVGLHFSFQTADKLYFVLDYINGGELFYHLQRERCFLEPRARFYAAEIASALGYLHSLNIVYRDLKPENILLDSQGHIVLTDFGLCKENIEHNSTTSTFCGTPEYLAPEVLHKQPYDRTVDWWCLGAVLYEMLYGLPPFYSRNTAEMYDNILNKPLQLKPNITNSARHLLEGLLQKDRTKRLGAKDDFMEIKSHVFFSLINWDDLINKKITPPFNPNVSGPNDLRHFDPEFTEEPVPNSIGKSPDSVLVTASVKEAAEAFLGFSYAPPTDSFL
In words: Inhibition of SGK at 50 uM.

For test [5], the target named is T3, Protein kinase C iota type (Homo sapiens) (UniProt P41743).
T3 sequence (whole entry): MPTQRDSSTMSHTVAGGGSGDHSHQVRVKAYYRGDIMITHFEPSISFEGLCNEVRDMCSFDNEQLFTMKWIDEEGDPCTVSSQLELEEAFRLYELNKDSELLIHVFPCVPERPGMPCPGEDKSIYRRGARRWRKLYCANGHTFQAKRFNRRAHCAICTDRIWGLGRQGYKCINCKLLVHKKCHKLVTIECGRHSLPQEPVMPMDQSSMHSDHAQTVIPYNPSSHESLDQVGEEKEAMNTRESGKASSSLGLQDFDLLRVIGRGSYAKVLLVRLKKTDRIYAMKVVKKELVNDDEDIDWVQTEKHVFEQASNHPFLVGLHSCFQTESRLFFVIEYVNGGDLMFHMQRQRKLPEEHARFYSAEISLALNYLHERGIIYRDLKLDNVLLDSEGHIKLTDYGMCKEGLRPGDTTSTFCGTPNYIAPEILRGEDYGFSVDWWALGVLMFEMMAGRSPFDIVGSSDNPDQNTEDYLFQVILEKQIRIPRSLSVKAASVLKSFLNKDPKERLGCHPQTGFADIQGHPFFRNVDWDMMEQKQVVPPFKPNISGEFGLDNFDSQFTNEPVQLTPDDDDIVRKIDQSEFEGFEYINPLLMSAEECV
Nature of the test: Inhibition of PKCiota at 50 uM.

Test [6] concerns the target T3, Protein kinase C iota type (Homo sapiens). In words: Inhibition of PKCiota at 200 uM.
Test [7] concerns the target Ribosomal protein S6 kinase beta-1 (Homo sapiens) (UniProt P23443). Nature of the test: Inhibition of S6K1 at 50 uM.
Test [8] in a line: Inhibition of PKA at 50 uM.
Test [9] addresses Serine/threonine-protein kinase N2 (Homo sapiens) (UniProt Q16513). In words: Inhibition of PRK2 at 50 uM.
For test [10], the target named is RAC-alpha serine/threonine-protein kinase (Homo sapiens) (UniProt P31749). Nature of the test: Inhibition of PKB-alpha at 50 uM.

Activity calls are given as the source filed them. The rule behind the calls is not given here.

Ribosomal protein S6 kinase beta-1 (Homo sapiens), sequence (P23443 whole entry, looked up): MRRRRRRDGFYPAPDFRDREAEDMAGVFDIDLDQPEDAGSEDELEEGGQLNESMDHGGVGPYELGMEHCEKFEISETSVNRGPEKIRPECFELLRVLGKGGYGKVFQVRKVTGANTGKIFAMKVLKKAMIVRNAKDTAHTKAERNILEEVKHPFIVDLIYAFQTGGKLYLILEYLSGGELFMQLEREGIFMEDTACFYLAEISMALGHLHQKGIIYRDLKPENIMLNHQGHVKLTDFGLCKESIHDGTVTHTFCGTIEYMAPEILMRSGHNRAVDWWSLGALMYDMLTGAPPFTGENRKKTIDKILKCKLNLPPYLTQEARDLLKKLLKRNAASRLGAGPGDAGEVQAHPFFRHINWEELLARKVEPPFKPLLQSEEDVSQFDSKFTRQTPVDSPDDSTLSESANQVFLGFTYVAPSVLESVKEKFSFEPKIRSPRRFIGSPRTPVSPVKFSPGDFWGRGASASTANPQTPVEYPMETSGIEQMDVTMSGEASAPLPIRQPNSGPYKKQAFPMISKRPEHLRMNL
3-phosphoinositide-dependent protein kinase 1 (Homo sapiens), sequence (O15530 whole entry, looked up): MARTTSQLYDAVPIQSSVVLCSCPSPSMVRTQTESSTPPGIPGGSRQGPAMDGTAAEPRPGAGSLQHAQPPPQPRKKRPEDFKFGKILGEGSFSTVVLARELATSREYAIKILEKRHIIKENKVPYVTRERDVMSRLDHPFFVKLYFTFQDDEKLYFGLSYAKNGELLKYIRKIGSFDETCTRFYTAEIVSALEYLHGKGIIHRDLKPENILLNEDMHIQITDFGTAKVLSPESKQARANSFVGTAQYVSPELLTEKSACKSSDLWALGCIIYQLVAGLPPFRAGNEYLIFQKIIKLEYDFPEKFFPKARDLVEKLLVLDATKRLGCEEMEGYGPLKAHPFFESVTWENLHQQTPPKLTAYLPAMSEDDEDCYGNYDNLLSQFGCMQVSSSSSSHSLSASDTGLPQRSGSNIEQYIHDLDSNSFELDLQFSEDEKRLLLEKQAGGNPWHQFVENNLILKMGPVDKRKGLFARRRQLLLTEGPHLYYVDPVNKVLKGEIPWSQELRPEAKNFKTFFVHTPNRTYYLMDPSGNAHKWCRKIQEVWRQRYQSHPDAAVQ
RAC-alpha serine/threonine-protein kinase (Homo sapiens), sequence (P31749 whole entry): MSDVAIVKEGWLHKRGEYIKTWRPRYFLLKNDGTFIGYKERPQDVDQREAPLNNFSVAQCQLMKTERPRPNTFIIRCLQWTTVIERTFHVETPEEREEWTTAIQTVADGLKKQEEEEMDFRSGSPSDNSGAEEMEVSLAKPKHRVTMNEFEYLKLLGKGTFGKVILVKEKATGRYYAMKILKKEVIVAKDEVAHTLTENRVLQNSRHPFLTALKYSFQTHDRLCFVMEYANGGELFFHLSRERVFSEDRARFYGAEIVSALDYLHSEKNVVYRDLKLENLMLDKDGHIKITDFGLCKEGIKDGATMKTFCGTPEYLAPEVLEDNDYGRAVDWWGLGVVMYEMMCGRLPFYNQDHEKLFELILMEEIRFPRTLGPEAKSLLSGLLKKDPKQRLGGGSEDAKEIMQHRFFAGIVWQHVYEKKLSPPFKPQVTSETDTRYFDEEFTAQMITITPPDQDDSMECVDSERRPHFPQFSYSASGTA
Serine/threonine-protein kinase N2 (Homo sapiens), sequence (Q16513 whole entry, looked up): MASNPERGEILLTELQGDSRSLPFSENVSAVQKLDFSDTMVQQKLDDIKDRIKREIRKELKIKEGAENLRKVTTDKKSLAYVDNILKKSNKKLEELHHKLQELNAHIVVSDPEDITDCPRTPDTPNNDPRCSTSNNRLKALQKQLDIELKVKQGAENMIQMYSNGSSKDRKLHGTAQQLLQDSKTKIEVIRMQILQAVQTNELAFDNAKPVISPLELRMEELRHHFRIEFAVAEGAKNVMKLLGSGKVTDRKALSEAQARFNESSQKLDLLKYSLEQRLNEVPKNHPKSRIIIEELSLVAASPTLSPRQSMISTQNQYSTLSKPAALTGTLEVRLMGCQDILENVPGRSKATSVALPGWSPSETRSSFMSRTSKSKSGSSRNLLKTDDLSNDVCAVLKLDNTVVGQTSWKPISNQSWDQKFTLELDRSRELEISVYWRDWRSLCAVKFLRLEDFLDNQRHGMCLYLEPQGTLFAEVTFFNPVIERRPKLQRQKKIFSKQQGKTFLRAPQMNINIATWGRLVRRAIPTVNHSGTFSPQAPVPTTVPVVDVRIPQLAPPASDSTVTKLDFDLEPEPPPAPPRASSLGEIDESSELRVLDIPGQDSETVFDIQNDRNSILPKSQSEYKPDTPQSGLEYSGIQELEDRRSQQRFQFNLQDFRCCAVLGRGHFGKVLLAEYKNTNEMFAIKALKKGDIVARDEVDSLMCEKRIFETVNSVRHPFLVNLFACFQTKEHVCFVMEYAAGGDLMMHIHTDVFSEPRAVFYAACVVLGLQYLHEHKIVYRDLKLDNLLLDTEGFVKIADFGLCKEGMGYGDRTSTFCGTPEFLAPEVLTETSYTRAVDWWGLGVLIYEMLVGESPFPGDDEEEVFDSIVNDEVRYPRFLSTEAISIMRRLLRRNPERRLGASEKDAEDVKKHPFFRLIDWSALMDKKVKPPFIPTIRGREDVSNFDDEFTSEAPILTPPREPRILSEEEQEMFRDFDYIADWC

For the compound `O=C(O)CC(Cc1nc2cc(Cl)c(F)cc2[nH]1)c1ccc(Cl)cc1` (racemic), the fold change (FC) in [1] is 3.
The IC50 is the point on the concentration scale where inhibition reaches its midpoint. As to `CC(C)(C)c1ccc(C(CC(=O)O)Cc2nc3ccc(I)cc3[nH]2)cc1` (racemic), the IC50 was found to be 13 µM in test [2] and 23 µM in test [3].
One may read the inhibition as the percentage by which the read-out fell short of the control. Take `CC(C)(C)c1ccc(C(CC(=O)O)Cc2nc3cc(I)ccc3[nH]2)cc1` (racemic): in [4], the inhibition is 30%.
For `CCCc1ccc(C(CC(=O)O)Cc2nc3cc(I)ccc3[nH]2)cc1` (racemic), the inhibition entry in test [5] and in test [6] was “inactive” in each case. Besides, the inhibition result in [4], in [8], in test [9] and in test [10] was “Active” throughout. In test [7], the inhibition was 60%.
On to `O=C(O)CC(Cc1nc2cc(Cl)ccc2[nH]1)c1ccc(Cl)cc1Cl` (racemic), for which the fold change (FC) in [1] came to 3.
Regarding `O=C(O)CC(Cc1nc2cc(-c3ccccc3)ccc2[nH]1)c1ccc(Cl)cc1` (racemic), the inhibition in test [7] was 60%.
